Test results published in patent US12421489B2, “Biological control of plant pathogenic microorganisms” (priority 2016, dated 2025).

What was measured:
Monilinia fructicola = test: Cherry inoculation assays 1 and 3: Monilinia fruit rot of ‘Sweet Valentine’ cherries, dip treatment; assay type: in vivo; conditions: Assay 1, cherries, cumulative after 13 days; Nil 50%; reductions not significant
Procedure: Fruit-based screening assays were conducted in laboratories at the Plant and Food Research Ruakura Research Centre, Hamilton, New Zealand (PFR). PFR assays focused on dip treatment application of YBCA5 and fungicide controls.
Fruit for Monilinia fructicola and Botrytis spp. inoculation assays were carried out on sweet cherries (Prunus avium ‘Sweet Valentine’) that were picked at the harvest mature stage and sourced from the PFR Clyde Research Orchard in Central Otago on 8 Jan. 2016 for fruit based assays 1 and 2. A second harvest was carried out on 13 Jan. 2016 for fruit based assays 3 and 4.
Each cherry was then subjected to a double wash process. Wash one consisted of 10 minutes in tap water on a rotary shaker (110 rpm) followed by a five minute wash in SDW (Wash 2). […]
A Monilinia fructicola culture (isolate code MFGQ3), which had been originally isolated from an infected peach tree located in the Hamilton region during 1998, was used for the spray inoculation assays included in this section (Ruakura based assay). […] This stock suspension was then filtered using a 70 μm cell strainer (to remove mycelial fragments), the concentration determined using a haemocytometer and then adjusted, by dilution with SDW+Tw 80 (0.05%) to a final concentration of 1×10^4 conidia/mL. […]

Penicillium spp. = test: Assay 8: wound protection of ‘Hongyang’ kiwifruit, Penicillium spp.; assay type: in vivo; conditions: wounded ‘Hongyang’ kiwifruit, treatment 24 h before Penicillium, 6 days incubation
Procedure: The kiwifruit ‘Hongyang’-based screening assays (assays 8 and 9) were conducted in laboratories at the Plant and Food Research Ruakura Research Centre, Hamilton, New Zealand (PFR). PFR assays focused on wound application of YBCA5 treatment, a commercial biological control treatment and a fungicide were used as comparative controls.
The ‘Hongyang’ kiwifruit were sourced from the PFR Riwaka Research Orchard in Motueka on 12 Apr. 2017 for fruit based assays 8 and 9. Penicillium spp. Phomopsis spp., Alternaria spp., Colletotrichum spp., Cryptosporiopsis spp. and Botrytis spp. inoculation assays were carried out on ‘Hongyang’ kiwifruit that were picked at the harvest mature stage. […]
For assays 8 and 9, two sterile paper towels were placed beneath Plix cut-outs, moistened with 40 mL SDW and each fruit placed in disposable lunch boxes (Plix Extra Deep 45/45, containing five Plix fruit cut-outs to prevent fruit from moving), sealed, then placed into large (40 L) plastic bins which were closed to ensure high relative humidity for the first 24 h and incubated on the lab bench at 24° C. […] After 6 days, (Alternaria spp. Botrytis spp., Penicillium spp., Phomopsis spp., Colletotrichum spp.) and 7 days (Cryptosporiopsis spp.), the severity of fungal rot was assessed for each treatment by measuring the lesion length (mm) along the axis of the fruit. […]

## CC(C)NC(=O)N1CC(=O)N(c2cc(Cl)cc(Cl)c2)C1=O [iprodione]
Monilinia fructicola
  incidence of Monilinia fruit rot: 22%
Penicillium spp.
  lesion size, comparison between treatments: significantly smaller than the untreated control
